“Also recorded” adds a separate entry of the source. Marks after values point to notes of the source that are not given here.
Legend:
Type in all cases: physicochemical
[1] = Thermogravimetric analysis (TGA)
Experimental: Thermogravimetric Analysis (TGA)
Instrument: Discovery 5500
Parameters: Nitrogen Flow balance 10 mL/min; sample 25 mL/min; start temperature: ambient condition (below 35° C.); final temperature: 300° C.; heating rate: 10° C./min; sample mass ˜2-10 mg. […]

[2] = Bulk stability studies of MRTX1133 Forms II, VI, VIII and IX (solid state, 1-2 weeks); conditions: for Initial Purity by UPLC: before storage
Experimental: Stability studies of all four forms were conducted according to well-known methods. The results are summarized below in Tables 4-11.

[3] = Accelerated stability study of MRTX1133 amorphous form vs crystalline Forms VIII and IX; conditions: for stability under the conditions tested (conclusion): 25° C./60% RH and 40° C./75% RH; for trend of impurity values and assay results: all tested storage conditions
Experimental: Chemical stability and water content studies were conducted on amorphous MRTX1133 and MRTX1133 Forms VIII and IX according to well-known methods summarized below.
The stability studies of the amorphous form were done as follows.
The required amount was placed in a clear Class A glass bottle, 24 mL, with closed-top cap, sealed in opaque resealable Zipper bag. Per each storage condition there was one bottle, and the sampling was performed from the same bottle. Each bottle was labeled with protocol number, compound ID, lot number and storage condition.
The experimental conditions for stability testing of Forms VIII and IX were similar. However, the samples were placed in double LDPE bags filled with nitrogen protection, then placed into a heat-sealed foil bag, and into an HDPE container containing desiccant packs.

[4] = Dynamic vapor sorption (DVS); conditions: 25° C./95% RH
Experimental: Dynamic Vapor Sorption (DVS)
Instrument: Intrinsic, Advantage or Adventure;
Total gas flow: 200 sccm; oven temperature: 25° C., solvent: water; method: • Cycle: 40-0-95-0-40% RH • Stage Step: 10% • Equilibrium: 0.002 dm/dt (%/min) Minimum dm/dt stability duration: 60 min • Maximum dm/dt stage time: 360 min

[5] = 25° C./60% RH, open container, 1 week
[6] = 25° C./60% RH, open container, 2 weeks
[7] = 25° C./92.5% RH, open container, 1 week
[8] = 25° C./92.5% RH, open container, 2 weeks
[9] = 40° C./75% RH, open container, 1 week
[10] = 40° C./75% RH, open container, 2 weeks
[11] = 60° C., tight container, 1 week
[12] = 60° C., tight container, 2 weeks
[13] = 40° C./75% RH, 2M, by HPLC, listed as amorphous
[14] = 40° C./75% RH, 3M, by HPLC, listed as amorphous

Compound: C#Cc1c(F)ccc2cc(O)cc(-c3ncc4c(N5C[C@H]6CC[C@@H](C5)N6)nc(OC[C@@]56CCCN5C[C@H](F)C6)nc4c3F)c12 [Form IX, 4-(4-((1R,5S)-3,8-diazabicyclo[3.2.1]octan-3-yl)-8-fluoro-2-(((2R,7aS)-2-fluorohexahydro-1H-pyrrolizin-7a-yl)methoxy)pyrido[4,3-d]pyrimidin-7-yl)-5-ethynyl-6-fluoronaphthalen-2-ol]
- onset of degradation as estimated by TGA [1]: about 190 °C
- weight loss observed by TGA ([1]; before 190° C. (onset of degradation)): about 0.5%
- weight loss observed by TGA ([1]; before 190° C. (onset of degradation), listed as MRTX1133 Form IX): 0.5% weight loss observed
- Bulk (UPLC) purity [2, 5]: 98.0%
- Bulk (UPLC) purity [2, 6]: 98.0%
- Bulk (XRPD) form [2, 6]: No form change
- Bulk color [2, 6]: no change of color
- Bulk (UPLC) purity [2, 7]: 97.9%
- Bulk (UPLC) purity [2, 8]: 98.1%
- Bulk (XRPD) form [2, 8]: No form change
- Bulk color [2, 8]: no change of color
- Bulk (UPLC) purity [2, 9]: 97.8%
- Bulk (XRPD) form [2, 9]: No form change
- Bulk (UPLC) purity [2, 10]: 98.0%
- Bulk (XRPD) form [2, 10]: No form change
- Bulk color [2, 10]: no change of color
- Bulk (UPLC) purity [2, 11]: 97.9%
- Bulk (UPLC) purity [2, 12]: 98.1%
- Bulk (XRPD) form [2, 12]: No form change
- Bulk color [2, 12]: no change of color
- Initial Purity by UPLC [2]: 97.9%
- stability under the conditions tested (conclusion) [3]: much more stable; also recorded: stable
- Moisture ([3]; 25° C./60% RH, 1M): 0.56 % w/w
- Assay ([3]; 25° C./60% RH, 1M, by HPLC): 98.0 w/w %
- Total Impurities ≥ 0.05% ([3]; 25° C./60% RH, 1M, by HPLC): 1.5 Area %
- Moisture ([3]; 25° C./60% RH, 2M): 0.65 % w/w
- Assay ([3]; 25° C./60% RH, 2M, by HPLC): 97.6 w/w %
- Total Impurities ≥ 0.05% ([3]; 25° C./60% RH, 2M, by HPLC): 1.4 Area %
- Moisture ([3]; 25° C./60% RH, 3M): 0.70 % w/w
- Assay ([3]; 25° C./60% RH, 3M, by HPLC): 98.2 w/w %
- Total Impurities ≥ 0.05% ([3]; 25° C./60% RH, 3M, by HPLC): 1.7 Area %
- Moisture ([3]; 25° C./60% RH, 6M): 0.66 % w/w
- Assay ([3]; 25° C./60% RH, 6M, by HPLC): 98.5 w/w %
- Total Impurities ≥ 0.05% ([3]; 25° C./60% RH, 6M, by HPLC): 1.7 Area %
- moisture content trend ([3]; 40° C./75% RH): relatively stable
- Moisture ([3]; 40° C./75% RH, 1M): 0.56 % w/w
- Assay ([3]; 40° C./75% RH, 1M, by HPLC): 97.6 w/w %
- Total Impurities ≥ 0.05% ([3]; 40° C./75% RH, 1M, by HPLC): 1.8 Area %
- Moisture ([3]; 40° C./75% RH, 2M): 0.63 % w/w
- Assay ([3]; 40° C./75% RH, 2M, by HPLC): 97.3 w/w %
- Total Impurities ≥ 0.05% ([3]; 40° C./75% RH, 2M, by HPLC): 1.8 Area %
- Moisture ([3]; 40° C./75% RH, 3M): 0.66 % w/w
- Assay ([3]; 40° C./75% RH, 3M, by HPLC): 96.5 w/w %
- Total Impurities ≥ 0.05% ([3]; 40° C./75% RH, 3M, by HPLC): 2.0 Area %
- Moisture ([3]; 40° C./75% RH, 6M): 0.70 % w/w
- Assay ([3]; 40° C./75% RH, 6M, by HPLC): 96.9 w/w %
- Total Impurities ≥ 0.05% ([3]; 40° C./75% RH, 6M, by HPLC): 2.3 Area %
- Moisture ([3]; T(0)): 0.94 % w/w
- Assay ([3]; T(0), by HPLC): 96.2 w/w %
- Total Impurities ≥ 0.05% ([3]; T(0), by HPLC): 1.2 Area %
- trend of impurity values and assay results [3]: no increases in impurity values and no decreases in assay results

Compound: C#Cc1c(F)ccc2cc(O)cc(-c3ncc4c(N5CC6CCC(C5)N6)nc(OC[C@@]56CCCN5C[C@H](F)C6)nc4c3F)c12 [Amorphous]
- stability under the conditions tested (conclusion) [3]: not stable
- Moisture ([3]; 25° C./60% RH, 1M): 3.4 % w/w
- Assay ([3]; 25° C./60% RH, 1M, by HPLC): 89.5 w/w %
- Total Impurities ≥ 0.05% ([3]; 25° C./60% RH, 1M, by HPLC): 4.35 Area %
- Moisture ([3]; 25° C./60% RH, 2M): 4.2 % w/w
- Assay ([3]; 25° C./60% RH, 2M, by HPLC): 87.7 w/w %
- Total Impurities ≥ 0.05% ([3]; 25° C./60% RH, 2M, by HPLC): 4.74 Area %
- Moisture ([3]; 25° C./60% RH, 3M): 4.6 % w/w
- Assay ([3]; 25° C./60% RH, 3M, by HPLC): 86.1 w/w %
- Total Impurities ≥ 0.05% ([3]; 25° C./60% RH, 3M, by HPLC): 6.13 Area %
- Moisture ([3]; 40° C./75% RH, 1M): 2.7 % w/w
- Assay ([3]; 40° C./75% RH, 1M, by HPLC): 82.8 w/w %
- Total Impurities ≥ 0.05% ([3]; 40° C./75% RH, 1M, by HPLC): 8.03 Area %
- Moisture ([3]; 40° C./75% RH, 2M): 5.2 % w/w
- Assay ([3]; 40° C./75% RH, 2M, by HPLC): 70.1 w/w %
- Total Impurities ≥ 0.05% ([3]; 40° C./75% RH, 2M, by HPLC): 13.21 Area %
- Assay [3, 13]: 70 w/w %
- Total Impurities ≥ 0.05% [3, 13]: 13.2 Area %
- Moisture ([3]; 40° C./75% RH, 3M): 5.8 % w/w
- Assay ([3]; 40° C./75% RH, 3M, by HPLC): 61.3 w/w %
- Total Impurities ≥ 0.05% ([3]; 40° C./75% RH, 3M, by HPLC): 17.75 Area %
- Assay [3, 14]: 61 w/w %
- Total Impurities ≥ 0.05% [3, 14]: 17.8 Area %
- Moisture ([3]; T(0)): 2.9 % w/w
- Total Impurities ≥ 0.05% ([3]; T(0), by HPLC): 2.24 Area %
- Total Impurities ≥ 0.05% ([3]; T(0), by HPLC, listed as amorphous): 2.2 Area %
- Assay ([3]; T(0), by Q-NMR): 94.2^b w/w %
- Assay ([3]; T(0), by Q-NMR, listed as amorphous): 94 w/w %
- trend of impurity values and assay results [3]: substantial increases in impurity values and corresponding decreases in assay results

Compound: C#Cc1c(F)ccc2cc(O)cc(-c3ncc4c(N5C[C@H]6CC[C@@H](C5)N6)nc(OC[C@@]56CCCN5C[C@H](F)C6)nc4c3F)c12 [Form VIII, 4-(4-((1R,5S)-3,8-diazabicyclo[3.2.1]octan-3-yl)-8-fluoro-2-(((2R,7aS)-2-fluorohexahydro-1H-pyrrolizin-7a-yl)methoxy)pyrido[4,3-d]pyrimidin-7-yl)-5-ethynyl-6-fluoronaphthalen-2-ol]
- water uptake by DVS [4]: about 1.3%
- water uptake by DVS ([4]; listed as MRTX1133 Form VIII): 1.3% water uptake at
- onset of degradation as estimated by TGA [1]: about 180 °C
- weight loss observed by TGA ([1]; before 180° C. (onset of degradation)): about 0.7%
- weight loss observed by TGA ([1]; before 180° C. (onset of degradation), listed as MRTX1133 Form VIII): 0.7% weight loss observed
- Bulk (UPLC) purity [2, 5]: 98.0%
- Bulk (UPLC) purity [2, 6]: 98.0%
- Bulk (XRPD) form [2, 6]: No form change
- Bulk color [2, 6]: no change of color
- Bulk (UPLC) purity [2, 7]: 98.1%
- Bulk (UPLC) purity [2, 8]: 98.0%
- Bulk (XRPD) form [2, 8]: No form change
- Bulk color [2, 8]: no change of color
- Bulk (UPLC) purity [2, 9]: 98.0%
- Bulk (XRPD) form [2, 9]: No form change
- Bulk (UPLC) purity [2, 10]: 98.1%
- Bulk (XRPD) form [2, 10]: No form change
- Bulk color [2, 10]: no change of color
- Bulk (UPLC) purity [2, 11]: 98.1%
- Bulk (UPLC) purity [2, 12]: 98.1%
- Bulk (XRPD) form [2, 12]: No form change
- Bulk color [2, 12]: no change of color
- Initial Purity by UPLC [2]: 98.0%
- stability under the conditions tested (conclusion) [3]: much more stable; also recorded: stable
- Moisture ([3]; 25° C./60% RH, 1M): 0.64 % w/w
- Assay ([3]; 25° C./60% RH, 1M, by HPLC): 96.8 w/w %
- Total Impurities ≥ 0.05% ([3]; 25° C./60% RH, 1M, by HPLC): 2.1 Area %
- Moisture ([3]; 25° C./60% RH, 3M): 0.49 % w/w
- Assay ([3]; 25° C./60% RH, 3M, by HPLC): 97.3 w/w %
- Total Impurities ≥ 0.05% ([3]; 25° C./60% RH, 3M, by HPLC): 2.1 Area %
- Moisture ([3]; 25° C./60% RH, 6M): 0.53 % w/w
- Assay ([3]; 25° C./60% RH, 6M, by HPLC): 96.4 w/w %
- Total Impurities ≥ 0.05% ([3]; 25° C./60% RH, 6M, by HPLC): 1.9 Area %
- moisture content trend ([3]; 40° C./75% RH): relatively stable
- Moisture ([3]; 40° C./75% RH, 1M): 0.62 % w/w
- Assay ([3]; 40° C./75% RH, 1M, by HPLC): 96.6 w/w %
- Total Impurities ≥ 0.05% ([3]; 40° C./75% RH, 1M, by HPLC): 2.2 Area %
- Moisture ([3]; 40° C./75% RH, 3M): 0.54 % w/w
- Assay ([3]; 40° C./75% RH, 3M, by HPLC): 97.4 w/w %
- Total Impurities ≥ 0.05% ([3]; 40° C./75% RH, 3M, by HPLC): 2.3 Area %
- Moisture ([3]; 40° C./75% RH, 6M): 0.78 % w/w
- Assay ([3]; 40° C./75% RH, 6M, by HPLC): 96.1 w/w %
- Total Impurities ≥ 0.05% ([3]; 40° C./75% RH, 6M, by HPLC): 2.2 Area %
- Moisture ([3]; T(0)): 0.55 % w/w
- Assay ([3]; T(0), by HPLC): 96.9 w/w %
- Total Impurities ≥ 0.05% ([3]; T(0), by HPLC): 2.5 Area %
- trend of impurity values and assay results [3]: no increases in impurity values and no decreases in assay results

Reference: US20250339436A1, “CRYSTALLINE FORMS OF MRTX1133” (MIRATI THERAPEUTICS, INC., priority 2024, published 2025)
